Results from US12071411B2, “Inhibitors of HIF-2α and methods of use thereof” (ARCUS BIOSCIENCES, INC., priority 2021, dated 2024).
pIC50: −log10 of the molar value. Read-outs that look alike come from different tables or passages of the source.

Key:
HIF-2α [1] = target: T1, HIF-2α (Homo sapiens, UniProt Q99814); assay: HIF-2α Luciferase Reporter Assay (serum free) in HIF-Luc-786-0 cells; assay type: cell-based; settings: Opti-MEM, 786-0 reporter cells, 20 hours incubation
Protocol: (§1) Generation of HIF-2α Luciferase 786-0 Cell Line:
(§2) Stable cell lines were generated by transducing 786-0 cells (ATCC, CRL-1932) with Cignal Lenti HIF Luc Reporter lentivirus (CLS-007L, Qiagen) according to the manufacturer's guidelines. In brief, 0.3×10^6 786-0 cells were transduced with lentivirus at a multiplicity of infection (MOI) of 25 for 24 hours. After transduction, cells were replenished with fresh RPMI 1640 Medium (Cat. No. 11875085, Thermo Fisher) supplemented with 10% FBS (Cat. No. A3160502, Gibco), 2 mM GlutaMAX™ (Cat. No. 35050-061, Invitrogen) and 100 units of penicillin and 100 μg of streptomycin/mL (Cat. No 15070063, Thermo Fisher) for another 24 hours. Antibiotic selection was performed in cell media containing 4 μg/mL of puromycin. After 7 days of antibiotic selection, stable pools of surviving cells were expanded and used in a luciferase reporter assay.
HIF-2α Luciferase Reporter Assay (Serum Free):
On day one, 20 uL of HIF-Luc-786-0 cells in Opti-MEM™ (Cat. No. 31985088, Thermo Fisher) were seeded into each well of a 384 well white opaque plate (Corning 3570) and incubated at 37° C. and 5% CO2. Twenty microliters of 2× test compounds in Opti-MEM™ were added to cells after 4 hours of incubation. Final assay conditions comprised 20,000 cells per well in 1% DMSO with test compound concentrations ranging from 50 uM to 0 uM. After 20 hours incubation at 37° C. and 5% CO2, luciferase activity was determined using ONE-Glo™ Luciferase Assay Reagent (E6110, Promega) following the manufacture's recommended procedure. Briefly, 40 uL of ONE-Glo™ luciferase reagents were added to each well and luciferase signals were measured using an Envision 2102 Multilabel Reader. Percentage maximum activity in each test well was calculated based on DMSO (maximum activity) and no cell control wells (baseline activity). The IC50 values of the test compounds were determined from compound dose response curves fitted using a standard four parameter fit equation.

HIF-2α [2] = target: T1, HIF-2α; assay: HIF-2α Luciferase Reporter Assay (serum), HRE-luciferase 786-0 cells in 100% human serum; assay type: cell-based; settings: for pIC50: 100% human serum, 786-0 reporter cells, overnight incubation, read-out: Serum Potency
Protocol: as §1, §2
HIF-2α Luciferase Reporter Assay (Serum):
An HRE-luciferase stable reporter 786-0 cell line was maintained in active culture using RPMI 1640 (GIBCO) media supplemented with 1% penicillin-streptomycin, 1% GlutaMAX™, 10% FBS-One Shot (GIBCO) and 4 ug/ml of puromycin (Invitrogen). On the day of the assay, cells were harvested using StemPro™ Accutase™ cell dissociation reagent (GIBCO) and resuspended at 1.5 million cells per milliliter in Opti-MEM™ (GIBCO). 20 ul/well of the resuspended cells were dispensed into a 384 white tissue culture-treated microplate (Corning) and allowed to incubate at 37° C., 5% CO2 for 3 hours. Compounds were prepared by dispensing 0.8 ul of compound in 100% DMSO into a Greiner plate containing 40 ul/well of 100% human serum (Bioreclamation IVT). After 3 hours, media was removed via centrifugation at 500 RPM for 30 seconds and 30 ul/well of compound diluted in human serum was added. The plate was incubated overnight at 37° C., 5% CO2. The following day, ONE-Glo™ was prepared per vendors instructions. The cell plate was removed from the incubator and the human serum was removed from the plate using centrifugation at 500 RPM for 30 seconds. Following the removal of human serum, 40 ul/well of room temperature Opti-MEM™ was added to the plate and allowed to equilibrate to room temperature for 2 hours. 40 ul/well of ONE-Glo™ reagent was added and allowed to incubate for 10 minutes before reading the luminescence signal on the Envision (PerkinElmer). Data was analyzed using 4-parameter logistic equation to generate IC50.

[3] = ratio of IC50 in 100% serum to IC50 in serum free conditions, approximate

T1 sequence (Q99814 whole entry): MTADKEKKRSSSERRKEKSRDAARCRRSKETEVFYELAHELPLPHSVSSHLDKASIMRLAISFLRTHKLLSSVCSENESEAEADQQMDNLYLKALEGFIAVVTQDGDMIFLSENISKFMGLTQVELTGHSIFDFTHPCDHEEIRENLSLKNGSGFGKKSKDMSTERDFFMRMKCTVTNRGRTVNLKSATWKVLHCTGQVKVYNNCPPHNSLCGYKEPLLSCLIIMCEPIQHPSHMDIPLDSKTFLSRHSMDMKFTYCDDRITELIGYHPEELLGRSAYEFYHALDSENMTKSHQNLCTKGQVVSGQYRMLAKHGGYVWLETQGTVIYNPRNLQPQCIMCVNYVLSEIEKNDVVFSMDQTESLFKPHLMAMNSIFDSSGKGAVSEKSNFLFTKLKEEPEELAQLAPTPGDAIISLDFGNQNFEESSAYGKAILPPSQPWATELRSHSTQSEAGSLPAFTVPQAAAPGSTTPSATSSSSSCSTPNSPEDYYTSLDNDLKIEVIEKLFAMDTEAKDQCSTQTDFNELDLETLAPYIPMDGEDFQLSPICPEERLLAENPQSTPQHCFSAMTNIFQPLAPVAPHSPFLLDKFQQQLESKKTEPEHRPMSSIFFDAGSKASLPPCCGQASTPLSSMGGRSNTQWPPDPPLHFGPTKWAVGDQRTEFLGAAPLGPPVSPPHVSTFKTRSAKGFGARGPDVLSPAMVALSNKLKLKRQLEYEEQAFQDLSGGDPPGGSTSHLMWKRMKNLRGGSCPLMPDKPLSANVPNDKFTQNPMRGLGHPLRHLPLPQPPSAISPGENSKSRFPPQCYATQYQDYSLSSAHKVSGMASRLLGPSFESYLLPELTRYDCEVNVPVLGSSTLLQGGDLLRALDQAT

| SMILES | pIC50 (HIF-2α [1]) | pIC50 (HIF-2α [2]) | Serum Shift (approximate) (HIF-2α [2]; [3]) | Serum Shift (approximate) (HIF-2α [2]) |
| --- | --- | --- | --- | --- |
| CO[C@H]1C[C@@H](n2nc(C(F)(F)F)c3c2CC(F)(F)[C@H]3O)CCC1(F)F (racemic) [Example 109, (4S)-1-[(1S,3S)-4,4-difluoro-3-methoxycyclohexyl]-5,5-difluoro-3-(trifluoromethyl)-1H,4H,5H,6H-cyclopenta[c]pyrazol-4-ol and (4S)-1-[(1R,3R)-4,4-difluoro-3-methoxycyclohexyl]-5,5-difluoro-3-(trifluoromethyl)-1H,4H,5H,6H-cyclopenta[c]pyrazol-4-ol] | 6.00 to 7.00 | 6.00 to 7.00 | 4 | – |
| O[C@H]1c2c(C(F)(F)F)nn([C@@H]3CC[C@@H](F)[C@@H](F)C3)c2[C@@H](F)[C@H]1F (single isomer, unassigned) [141/142 DIAST-1] | 6.00 to 7.00 | 6.00 to 7.00 | 4 | – |
| O[C@H]1c2c(C(F)(F)F)nn([C@@H]3CCC(F)(F)[C@@H](F)C3)c2CC1(F)F [Example 121, (4S)-5,5-difluoro-1-[(1R,3S)-3,4,4-trifluorocyclohexyl]-3-(trifluoromethyl)-4,6-dihydrocyclopenta[c]pyrazol-4-ol] | > 7.00 | < 6.00 | 11 | – |
| O[C@H]1c2c(C(F)(F)F)nn([C@H]3CC[C@H](F)[C@H](F)C3)c2[C@@H](F)[C@H]1F (single isomer, unassigned) [141/142 DIAST-2] | 6.00 to 7.00 | 6.00 to 7.00 | 3 | – |
| O[C@H]1c2c(C(F)(F)F)nn(-c3ccc(F)cc3)c2CC1(F)F [Example 114, (4S)-5,5-difluoro-1-(4-fluorophenyl)-3-(trifluoromethyl)-4,6-dihydrocyclopenta[c]pyrazol-4-ol] | 6.00 to 7.00 | < 6.00 | – | 27 |
| O[C@H]1c2c(C(F)(F)F)nn([C@@H]3C[C@@H](F)[C@@H](F)[C@@H](F)C3)c2[C@@H](F)[C@H]1F [Example 140, (4S,5S,6R)-5,6-difluoro-1-[(3R,5S)-3,4,5-trifluorocyclohexyl]-3-(trifluoromethyl)-5,6-dihydro-4H-cyclopenta[c]pyrazol-4-ol] | > 7.00 | 6.00 to 7.00 | – | 3 |

Further lines, with some results ahead:

| pIC50 (HIF-2α [1]) | pIC50 (HIF-2α [2]) | Serum Shift (approximate) (HIF-2α [2]; [3]) | SMILES | Serum Shift (approximate) (HIF-2α [2]) |
| --- | --- | --- | --- | --- |
| 6.00 to 7.00 | < 6.00 | 5 | O[C@H]1c2c(C(F)(F)F)nn(C3CCC(F)(F)C3)c2CC1(F)F (mixture of isomers) [Example 54, (4S)-1-(3,3-difluorocyclopentyl)-5,5-difluoro-3-(trifluoromethyl)-4,6-dihydrocyclopenta[c]pyrazol-4-ol] | – |
| > 7.00 | 6.00 to 7.00 | 8 | O[C@H]1c2c(C(F)(F)F)nn([C@@H]3CC[C@@H](F)[C@@H](F)C3)c2CC1(F)F (single isomer, unassigned) [72/73 DIAST-1] | – |
| > 7.00 | > 7.00 | – | CO[C@H](CCn1nc(C(F)(F)F)c2c1CC(F)(F)[C@H]2O)C(F)(F)F [Example 61, (4S)-5,5-difluoro-1-[(3R)-4,4,4-trifluoro-3-methoxybutyl]-3-(trifluoromethyl)-4,6-dihydrocyclopenta[c]pyrazol-4-ol] | – |
| 6.00 to 7.00 | < 6.00 | 23 | O[C@H]1c2c(C(F)(F)F)nn([C@@H]3CC[C@@H](F)C[C@H]3F)c2CC1(F)F (single isomer, unassigned) [97/98 DIAST-1] | – |
| > 7.00 | < 6.00 | 12 | O[C@H]1c2c(C(F)(F)F)nn(C3CC4(C3)CC(F)(F)C4)c2[C@H](F)[C@H]1F (single isomer, unassigned) [Example 135] | – |
| > 7.00 | > 7.00 | 6 | CC(CCn1nc(C(F)(F)F)c2c1CCC(F)(F)[C@H]2O)OC(F)(F)F (stereo partly drawn) [Example 14, (4S)-5,5-difluoro-1-[3-(trifluoromethoxy)butyl]-3-(trifluoromethyl)-6,7-dihydro-4H-indazol-4-ol] | – |
